Columns and labels:
Assay type in all cases: in vivo
[1] = tested on: PR1b and OsWRKY45 expression; assay: Induction of PR1b and OsWRKY45 expression by BTH in NH1 RNAi rice plants (RT-PCR); settings: rice plants in which NH1 was suppressed by RNAi
Text: FIG. 10 is composed of photographs depicting OsWRKY45 expression in rice plants in which the expression of NH1, a rice NPR1 homolog, is suppressed by RNAi. Two lines (#7 and #14) in which the NH1 expression was suppressed by RNAi were BTH-treated or mock-treated to examine the induction of expression of PR1b and OsWRKY45 by RT-PCR.
Recently, it was reported that in Arabidopsis thaliana, the resistance to a filamentous fungus, Erysiphe cichoracearum, was enhanced by the introduction of WRKY70, a WRKY transcription factor (Li, J., Brader, G., Kariola, T., and Palva, E. T. (2006). WRKY70 modulates the selection of signaling pathways in plant defense. Plant J. 46, 477-491). […] From these findings, WRKY70 is thought to be a transcription factor downstream of NPR1. Thus, for comparison of functions between WRKY70 and OsWRKY45, the induction of PR1b and OsWRKY45 expressions by BTH was examined in rice plants in which NH1, a rice NPR1 homolog (Chern, M., Fitzgerald, H. A., Canlas, P. E., Navarre, D. A., and Ronald, P. C. (2005). Overexpression of a rice NPR1 homolog leads to constitutive activation of defense response and hypersensitivity to light. Mol. Plant-Microbe Int. 18, 511-520) was suppressed by RNAi.

[2] = tested on: blast disease fungus (race 007); assay: Blast disease assay after BTH treatment in non-transformed and OsWRKY45 RNAi rice plants; settings: 0.5 mM BTH sprayed at 4-leaf stage, inoculated 2 days later, counted after 7 days
Text: FIG. 8 is a graph depicting the results of inducing the blast disease resistance by BTH in rice plants in which OsWRKY45 expression is suppressed. A blast disease fungus was inoculated into non-transformed rice plants, either treated or not treated with BTH, and BTH-treated rice plants in which OsWRKY45 expression was suppressed. After seven days, the number of blotches on the 10-cm long central part of leaf blades was counted in each plant.
In order to examine the effect of suppression of OsWRKY45 expression on the blast disease resistance induced in rice by BTH treatment, non-transformed rice plants and transformed lines of rice plant in which the suppression of OsWRKY45 expression by RNAi had been confirmed were sprayed with 0.5 mM BTH at the 4-leaf stage, and then inoculated with a compatible blast disease fungus (race 007) 2 days later. After 7 days, the blotches present on the 10-cm long central part of leaf blades were counted in each plant body.

[3] = tested on: OsWRKY45; assay: Induction of OsWRKY45 gene expression by BTH treatment (Northern blot analysis); settings: rice seedlings 3.5-leaf stage, 0.5 mM BTH, leaves
Description: FIG. 1 depicts the induction of OsWRKY45 gene expression by BTH treatment. Rice plants at the 3.5-leaf stage were treated with BTH, and RNAs were prepared from leaves over time and subjected to Northern analysis. For comparison, two types of PR genes (PR1b and PBZ1) were also examined for induction of expression.
In order to detect a transcription factor gene inducibly expressed by BTH, rice seedlings (3.5-leaf stage) on day 10 after seeding were treated with 0.5 mM BTH (in 0.01% Tween 20/0.5% acetone), and the RNAs prepared over time (12, 24, 72, and 120 hours after the treatment) from BTH-treated and mock-treated rice leaves were subjected to DNA microarray analysis with the rice 22K array (Agilent). As a result, a WRKY transcription factor gene (OsWRKY45, AK066255; SEQ ID NOs: 1 and 2) that is inducibly expressed by BTH treatment was found.

SMILES: c1ccc2snnc2c1 [BTH, benzothiadiazole]
- induction of OsWRKY45 expression by BTH [1]: not affected at all
- induction of PR1b expression by BTH [1]: completely lost
- blotches on the 10-cm long central part of leaf blades ([2]; non-transformed rice): Almost no blotches were observed
- blotches on the 10-cm long central part of leaf blades ([2]; rice with OsWRKY45 expression suppressed by RNAi): nearly equal number of blotches to that in non-treated, non-transformed rice plants
- time after BTH treatment within which OsWRKY45 expression was induced [3]: ≤ 3 h

Reference: patent publication US8373021B2, “Improving disease resistance in plants by introducing transcription factor gene” (priority 2005, dated 2013)
